Results taken from patent publication US8461328B2, “Tricyclic heterocyclic compounds, compositions and methods of use thereof” (Genentech, Inc., priority 2010, dated 2013).

Key:
Type in all cases: biochemical
JAK1 = target: T1, JAK1 (Homo sapiens, UniProt P23458); assay: JAK1 inhibition (Table 4); conditions: read-out: JAK1 Ki
T1 construct: made in house; host or cells: SF9 insect cells (baculovirus)

JAK2 = target: T2, JAK2 (Homo sapiens, UniProt O60674); assay: JAK2 inhibition (Table 4); conditions: read-out: JAK2 Ki
T2 construct: made in house; host or cells: SF9 insect cells (baculovirus)

JAK3 = target: T3, JAK3 (Homo sapiens, UniProt P52333); assay: JAK3 inhibition (Table 4); conditions: read-out: JAK3 Ki
T3 construct: made in house; host or cells: SF9 insect cells (baculovirus)

TYK2 = target: T4, TYK2 (Homo sapiens, UniProt P29597); assay: TYK2 inhibition (Table 4)
T4 construct: made in house; host or cells: SF9 insect cells (baculovirus)
T4 sequence (P29597 873-1187): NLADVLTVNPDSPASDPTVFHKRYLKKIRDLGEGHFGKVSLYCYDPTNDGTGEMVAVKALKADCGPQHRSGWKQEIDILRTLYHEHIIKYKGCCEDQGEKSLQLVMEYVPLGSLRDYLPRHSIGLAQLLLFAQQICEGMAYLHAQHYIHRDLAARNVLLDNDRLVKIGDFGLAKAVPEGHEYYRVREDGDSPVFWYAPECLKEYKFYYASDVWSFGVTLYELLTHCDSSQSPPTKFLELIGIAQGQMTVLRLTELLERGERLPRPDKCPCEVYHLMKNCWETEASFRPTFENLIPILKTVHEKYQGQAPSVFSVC

T1 sequence (P23458 852-1154): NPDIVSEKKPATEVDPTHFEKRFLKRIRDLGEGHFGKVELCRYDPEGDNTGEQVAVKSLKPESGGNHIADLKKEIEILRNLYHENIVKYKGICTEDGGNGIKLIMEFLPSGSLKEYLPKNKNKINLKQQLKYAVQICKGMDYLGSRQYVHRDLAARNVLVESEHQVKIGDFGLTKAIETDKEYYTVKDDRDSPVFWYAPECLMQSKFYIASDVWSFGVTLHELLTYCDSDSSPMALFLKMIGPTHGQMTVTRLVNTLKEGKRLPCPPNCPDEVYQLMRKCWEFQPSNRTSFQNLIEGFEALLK
T3 sequence (P52333 783-1124): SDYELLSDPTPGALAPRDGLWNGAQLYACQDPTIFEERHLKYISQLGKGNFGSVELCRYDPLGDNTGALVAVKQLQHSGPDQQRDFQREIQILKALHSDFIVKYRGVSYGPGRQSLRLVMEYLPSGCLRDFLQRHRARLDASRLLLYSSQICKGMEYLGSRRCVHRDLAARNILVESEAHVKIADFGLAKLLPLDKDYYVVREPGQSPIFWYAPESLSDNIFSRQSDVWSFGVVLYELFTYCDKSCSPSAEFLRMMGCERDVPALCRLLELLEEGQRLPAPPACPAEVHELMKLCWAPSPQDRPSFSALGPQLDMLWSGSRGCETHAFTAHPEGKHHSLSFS
T2 sequence (O60674 812-1132): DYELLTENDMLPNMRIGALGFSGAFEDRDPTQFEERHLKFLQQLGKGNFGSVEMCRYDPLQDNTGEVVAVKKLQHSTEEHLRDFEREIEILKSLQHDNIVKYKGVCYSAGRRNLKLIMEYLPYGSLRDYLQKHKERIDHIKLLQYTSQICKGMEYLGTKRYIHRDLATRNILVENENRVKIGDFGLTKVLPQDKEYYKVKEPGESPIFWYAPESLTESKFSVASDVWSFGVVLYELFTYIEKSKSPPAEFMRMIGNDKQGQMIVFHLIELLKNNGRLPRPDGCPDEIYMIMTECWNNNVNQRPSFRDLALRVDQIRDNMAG

Row | SMILES | Ki (JAK1) | Ki (JAK2) | Ki (JAK3) | Ki (TYK2)
1 | COC1CCCC(n2c(C)nc3cnc4[nH]ccc4c32)C1 (stereo not drawn) [Example 889, 1-(3-Methoxy-cyclohexyl)-2-methyl-1,6-dihydro-1,3,5,6-tetraaza-as-indacene] | 36.2 nM | 337 nM | 335 nM | 96.5 nM
2 | Cc1nc2cnc3[nH]ccc3c2n1[C@@H]1CCC[C@](C)(O)C1 [Example 890, (1S,3R)-1-Methyl-3-(2-methyl-6H-1,3,5,6-tetraaza-as-indacen-1-yl)-cyclohexanol] | 37.6 nM | 38.1 nM | 36.9 nM | 133 nM
3 | C[C@@H](O)c1nc2cnc3[nH]ccc3c2n1N1CCOCC1 [Example 891, (R)-1-(1-Morpholin-4-yl-1,6-dihydro-1,3,5,6-tetraaza-as-indacen-2-yl)-ethanol] | 65 nM | 543 nM | 240 nM | 165 nM
4 | Cc1nc2cnc3[nH]ccc3c2n1[C@@H]1CCC[C@@](C)(O)C1 [Example 892, (1R,3R)-1-Methyl-3-(2-methyl-6H-1,3,5,6-tetraaza-as-indacen-1-yl)-cyclohexanol] | 82.1 nM | 145 nM | 130 nM | 114 nM
5 | CCn1ncc(CN2CCC(n3c([C@@H](C)O)nc4cnc5[nH]ccc5c43)CC2)c1C [Example 900, (R)-1-{1-[1-(1-Ethyl-5-methyl-1H-pyrazol-4-ylmethyl)-piperidin-4-yl]-1,6-dihydro-1,3,5,6-tetraaza-as-indacen-2-yl}-ethanol] | 18 nM | 494 nM | 130 nM | 2010 nM
6 | Cc1nc2ncccn2c1CN1CCC(n2c([C@@H](C)O)nc3cnc4[nH]ccc4c32)CC1 [Example 901, (R)-1-{1-[1-(2-Methyl-imidazo[1,2-a]pyrimidin-3-ylmethyl)-piperidin-4-yl]-1,6-dihydro-1,3,5,6-tetraaza-as-indacen-2-yl}-ethanol] | 25 nM | 139 nM | 72.5 nM | 223 nM
7 | Cc1nc(CN2CCC(n3c([C@@H](C)O)nc4cnc5[nH]ccc5c43)CC2)c[nH]1 [Example 902, (R)-1-{1-[1-(2-Methyl-1H-imidazol-4-ylmethyl)-piperidin-4-yl]-1,6-dihydro-1,3,5,6-tetraaza-as-indacen-2-yl}-ethanol] | 25.5 nM | 1230 nM | 478 nM | 2670 nM
8 | Cc1nc(CN2CCC(n3c([C@@H](C)O)nc4cnc5[nH]ccc5c43)CC2)c(C)o1 [Example 903, (R)-1-{1-[1-(2,5-Dimethyl-oxazol-4-ylmethyl)-piperidin-4-yl]-1,6-dihydro-1,3,5,6-tetraaza-as-indacen-2-yl}-ethanol] | 33.9 nM | 323 nM | 88.9 nM | 542 nM
9 | CC(O)c1nc2cnc3[nH]ccc3c2n1C1CC2CCC1O2 (stereo not drawn) [Example 906, 1-[1-(7-Oxa-bicyclo[2.2.1]hept-2-yl)-1,6-dihydro-1,3,5,6-tetraaza-as-indacen-2-yl]-ethanol] | 51.8 nM | 271 nM | 273 nM | 119 nM
10 | Cc1nc2cnc3[nH]ccc3c2n1C1CNCCOC1 (stereo not drawn) [Example 910, 2-Methyl-1-[1,4]oxazepan-6-yl-1,6-dihydro-1,3,5,6-tetraaza-as-indacene] | 50.2 nM | 212 nM | 323 nM | 213 nM
11 | CC(O)c1nc2cnc3[nH]ccc3c2n1C1CC2CCC(C1)N2 (stereo not drawn) [Example 919, 1-[1-(8-Aza-bicyclo[3.2.1]oct-3-yl)-1,6-dihydro-1,3,5,6-tetraaza-as-indacen-2-yl]-ethanol] | 10.6 nM | 437 nM | 476 nM | 264 nM
12 | CC(=O)NCc1nc2cnc3[nH]ccc3c2n1C1CCN(CCF)CC1 [Example 921, N-{1-[1-(2-Fluoro-ethyl)-piperidin-4-yl]-1,6-dihydro-1,3,5,6-tetraaza-as-indacen-2-ylmethyl}-acetamide] | 13.1 nM | 116 nM | 70.9 nM | 191 nM
13 | O=S1(=O)CCCN1CCc1nc2cnc3[nH]ccc3c2n1C1CCCCC1 [Example 922, 1-Cyclohyl-2-[2-(1,1-dioxo-1-isothiazolidin-2-yl)-ethyl]-1,6-dihydro-1,3,5,6-tetraaza-as-indacene] | 13.3 nM | 49.8 nM | 51.6 nM | 146 nM
14 | C[C@@H](O)c1nc2cnc3[nH]ccc3c2n1C1CCN(Cc2ncco2)CC1 [Example 923, (R)-1-[1-(1-Oxazol-2-ylmethyl-piperidin-4-yl)-1,6-dihydro-1,3,5,6-tetraaza-as-indacen-2-yl]-ethanol] | 17.1 nM | 150 nM | 37.4 nM | 363 nM

Continued by falling Ki (JAK1), values first:

Row | Ki (JAK1) | Ki (JAK2) | Ki (JAK3) | Ki (TYK2) | SMILES
15 | 13 nM | 93 nM | 86.5 nM | 183 nM | CC(=O)NCc1nc2cnc3[nH]ccc3c2n1C1CCN(CC(F)(F)F)CC1 [Example 920, N-{1-[1-(2,2,2-Trifluoro-ethyl)-piperidin-4-yl]-1,6-dihydro-1,3,5,6-tetraaza-as-indacen-2-ylmethyl}-acetamide]
16 | 7.08 nM | 128 nM | 213 nM | 352 nM | CCN1CC[C@@H](n2c(CNS(C)(=O)=O)nc3cnc4[nH]ccc4c32)[C@@H](F)C1 [Example 909, N-[1-((3S,4R)-1-Ethyl-3-fluoro-piperidin-4-yl)-1,6-dihydro-1,3,5,6-tetraaza-as-indacen-2-ylmethyl]-methanesulfonamide]
17 | 6.73 nM | 52.8 nM | 63.5 nM | 78.4 nM | C[C@@H](O)c1nc2cnc3[nH]ccc3c2n1C1CCN(CC(F)F)CC1 [Example 916, (R)-1-{1-[1-(2,2-Difluoro-ethyl)-piperidin-4-yl]-1,6-dihydro-1,3,5,6-tetraaza-as-indacen-2-yl}-ethanol]
18 | 6.07 nM | 37.1 nM | 16.3 nM | 282 nM | CCN1CCC(n2c(CCNC(=O)OC)nc3cnc4[nH]ccc4c32)C(F)(F)C1 (stereo not drawn) [Example 908, {2-[1-(1-Ethyl-3,3-difluoro-piperidin-4-yl)-1,6-dihydro-1,3,5,6-tetraaza-as-indacen-2-yl]-ethyl}-carbamic acid methyl ester]
19 | 5.49 nM | 28.2 nM | 22.2 nM | 101 nM | CCN1CCC(n2c(CNS(C)(=O)=O)nc3cnc4[nH]ccc4c32)C(F)(F)C1 (stereo not drawn) [Example 915, N-[1-(1-Ethyl-3,3-difluoro-piperidin-4-yl)-1,6-dihydro-1,3,5,6-tetraaza-as-indacen-2-ylmethyl]-methanesulfonamide]
20 | 4.9 nM | 49.2 nM | 60.7 nM | 9.49 nM | C[C@@H](O)c1nc2cnc3[nH]ccc3c2n1[C@H]1CCN(CCC#N)C1 [Example 893, 3-{(S)-3-[2-((R)-1-Hydroxy-ethyl)-6H-1,3,5,6-tetraaza-as-indacen-1-yl]-pyrrolidin-1-yl}-propionitrile]
21 | 3.37 nM | 42.8 nM | 7.83 nM | 176 nM | Cc1noc(CN2CCC(n3c(C(C)O)nc4cnc5[nH]ccc5c43)C(F)C2)n1 (stereo not drawn) [Example 912, 1-{1-[3-Fluoro-1-(3-methyl-[1,2,4]oxadiazol-5-ylmethyl)-piperidin-4-yl]-1,6-dihydro-1,3,5,6-tetraaza-as-indacen-2-yl}-ethanol]
22 | 3.33 nM | 37.7 nM | 5.74 nM | 180 nM | Cc1cc(CN2CCC(n3c(C(C)O)nc4cnc5[nH]ccc5c43)C(F)C2)no1 (stereo not drawn) [Example 911, 1-{1-[3-Fluoro-1-(5-methyl-isoxazol-3-ylmethyl)-piperidin-4-yl]-1,6-dihydro-1,3,5,6-tetraaza-as-indacen-2-yl}-ethanol]
23 | 3.32 nM | 32.1 nM | 6.73 nM | 140 nM | Cc1cc(CN2CCC(n3c([C@@H](C)O)nc4cnc5[nH]ccc5c43)CC2)no1 [Example 899, (R)-1-{1-[1-(5-Methyl-isoxazol-3-ylmethyl)-piperidin-4-yl]-1,6-dihydro-1,3,5,6-tetraaza-as-indacen-2-yl}-ethanol]
24 | 2.09 nM | 54.4 nM | 12.9 nM | 96.7 nM | C[C@@H](O)c1nc2cnc3[nH]ccc3c2n1C1CCN(Cc2cnco2)CC1 [Example 898, (R)-1-[1-(1-Oxazol-5-ylmethyl-piperidin-4-yl)-1,6-dihydro-1,3,5,6-tetraaza-as-indacen-2-yl]-ethanol]
25 | 1.9 nM | 9.44 nM | 13.2 nM | 4.42 nM | OCc1nc2cnc3[nH]ccc3c2n1C1CCN(CC(F)F)CC1 [Example 897, {1-[1-(2,2-Difluoro-ethyl)-piperidin-4-yl]-1,6-dihydro-1,3,5,6-tetraaza-as-indacen-2-yl}-methanol]
26 | 1.72 nM | 21.4 nM | 6.89 nM | 56.7 nM | C[C@@H](O)c1nc2cnc3[nH]ccc3c2n1C1CCN(Cc2ccn[nH]2)CC1 [Example 896, (R)-1-{1-[1-(2H-Pyrazol-3-ylmethyl)-piperidin-4-yl]-1,6-dihydro-1,3,5,6-tetraaza-as-indacen-2-yl}-ethanol]
27 | 1.27 nM | 19.1 nM | 3.34 nM | 99.1 nM | Cc1cc(CN2CCC(n3c(C(C)O)nc4cnc5[nH]ccc5c43)C(F)C2)on1 (stereo not drawn) [Example 895, 1-{1-[3-Fluoro-1-(3-methyl-isoxazol-5-ylmethyl)-piperidin-4-yl]-1,6-dihydro-1,3,5,6-tetraaza-as-indacen-2-yl}-ethanol]
